Measured values: ChEMBL document CHEMBL3751732 (Bioorg Med Chem Lett, 2016)
The source made the active and inactive calls. No cut-off for these calls is given here.

Legend:
Histamine H4 receptor [1] = molecular target: T1, Histamine H4 receptor (Homo sapiens, UniProt Q9H3N8); test: Displacement of [3H]histamine from human histamine 4 receptor expressed in Sf9 cell membranes by liquid scintillation counting
Histamine H1 receptor = Histamine H1 receptor (Homo sapiens, UniProt P35367); test: Displacement of [3H]mepyramine from human histamine 1 receptor expressed in Sf9 cell membranes by liquid scintillation counting
Sequence of Histamine H1 receptor (P35367 whole entry): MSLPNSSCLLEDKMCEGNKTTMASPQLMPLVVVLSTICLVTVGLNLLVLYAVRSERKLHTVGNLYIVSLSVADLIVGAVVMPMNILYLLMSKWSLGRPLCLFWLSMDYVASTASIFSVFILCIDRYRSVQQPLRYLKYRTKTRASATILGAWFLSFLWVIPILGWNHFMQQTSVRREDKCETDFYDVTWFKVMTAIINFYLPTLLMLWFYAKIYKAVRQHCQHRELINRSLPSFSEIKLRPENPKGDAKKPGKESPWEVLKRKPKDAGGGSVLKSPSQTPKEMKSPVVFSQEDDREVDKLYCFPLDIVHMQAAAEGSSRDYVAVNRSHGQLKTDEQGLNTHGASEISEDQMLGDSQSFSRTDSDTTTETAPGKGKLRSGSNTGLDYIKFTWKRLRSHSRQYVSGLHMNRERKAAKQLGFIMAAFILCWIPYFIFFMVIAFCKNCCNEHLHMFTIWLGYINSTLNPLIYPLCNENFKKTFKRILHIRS

Histamine H2 receptor = Histamine H2 receptor (Homo sapiens, UniProt P25021); test: Displacement of [3H]UR-DE257 from human histamine 2 receptor expressed in Sf9 cell membranes by liquid scintillation counting
Sequence of Histamine H2 receptor (P25021 whole entry): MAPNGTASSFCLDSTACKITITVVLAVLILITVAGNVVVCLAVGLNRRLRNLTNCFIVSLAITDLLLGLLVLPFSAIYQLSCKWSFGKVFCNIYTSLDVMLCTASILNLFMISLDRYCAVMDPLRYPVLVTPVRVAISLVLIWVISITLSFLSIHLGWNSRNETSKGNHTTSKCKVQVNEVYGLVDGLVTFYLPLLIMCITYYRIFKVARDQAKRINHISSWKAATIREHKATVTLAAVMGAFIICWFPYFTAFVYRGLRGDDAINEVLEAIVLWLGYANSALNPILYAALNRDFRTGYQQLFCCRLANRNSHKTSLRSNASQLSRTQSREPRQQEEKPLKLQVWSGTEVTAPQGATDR

Histamine H4 receptor [2] = molecular target: T1, Histamine H4 receptor; test: Antagonist activity at human histamine 4 receptor expressed in Sf9 cell membranes co-expressing Galphai2 and Gbeta1gamma2 assessed as [35S]GTPgammaS binding by scintillation counting; assay type: functional
Histamine H3 receptor = Histamine H3 receptor (Homo sapiens, UniProt Q9Y5N1); test: Displacement of [3H]Nalpha-methylhistamine from human histamine 3 receptor expressed in Sf9 cell membranes by liquid scintillation counting
Sequence of Histamine H3 receptor (Q9Y5N1 whole entry): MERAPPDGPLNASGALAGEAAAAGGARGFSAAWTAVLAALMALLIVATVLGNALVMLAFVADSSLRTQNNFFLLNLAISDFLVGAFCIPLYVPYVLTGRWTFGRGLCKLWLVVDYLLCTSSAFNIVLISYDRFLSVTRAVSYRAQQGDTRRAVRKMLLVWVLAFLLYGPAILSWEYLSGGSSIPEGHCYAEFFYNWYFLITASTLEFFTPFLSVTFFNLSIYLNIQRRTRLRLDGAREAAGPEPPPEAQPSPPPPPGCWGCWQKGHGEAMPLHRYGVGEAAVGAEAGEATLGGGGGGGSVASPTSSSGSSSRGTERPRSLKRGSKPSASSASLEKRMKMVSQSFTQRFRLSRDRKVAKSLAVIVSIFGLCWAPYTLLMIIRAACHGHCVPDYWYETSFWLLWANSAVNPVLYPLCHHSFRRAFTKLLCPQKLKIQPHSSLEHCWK

Histamine H4 receptor [3] = molecular target: T1, Histamine H4 receptor; test: Antagonist activity at human histamine 4 receptor expressed in Sf9 cell membranes co-expressing Galphai2 and Gbeta1gamma2 assessed as [35S]GTPgammaS binding by scintillation counting relative to control histamine; assay type: functional

Row | Ki (Histamine H4 receptor [1]) | Ki (Histamine H1 receptor) | Structure (SMILES) | other results
1 | 6.76 µM | 1.86 µM | CN1CCN(c2nc(NCCc3ccccc3)nc3c2-c2ccccc2CC3)CC1 | –
2 | 13.8 µM | 1.07 µM | COc1ccc(CNc2nc3c(c(N4CCN(C)CC4)n2)-c2ccccc2CC3)cc1 | –
3 | 31.6 µM | 2.51 µM | CN1CCN(c2nc(NCc3ccccc3)cc(-c3ccccc3)n2)CC1 | –
4 | – | – | COc1ccc(CNc2cc(-c3ccccc3)nc(N(C)C)n2)cc1 | pKi (Histamine H4 receptor [1]): inactive; pKi (Histamine H1 receptor): inactive
5 | 26.3 µM | 1.91 µM | CN1CCN(c2nc(NCc3ccccc3)nc3c2-c2ccccc2CC3)CC1 | –
6 | – | 0.55 µM | CN1CCN(c2nc(NCc3cccs3)c3cc(Cl)ccc3n2)CC1 | –
7 | 19.5 µM | 6.31 µM | COc1ccc(CNc2nc(N3CCN(C)CC3)nc3c2CCc2ccccc2-3)cc1-c1ccc(Cl)cc1 | –
8 | 14.5 µM | 0.891 µM | CN1CCN(c2nc(NCc3ccccc3)c3c(n2)-c2ccccc2CC3)CC1 | –
9 | 72.4 µM | 4.17 µM | COc1ccc(CNc2cc(-c3ccccc3)nc(N3CCN(C)CC3)n2)cc1 | –
10 | 9.77 µM | 3.31 µM | CN1CCN(c2cc(-c3ccccc3)nc(NCCc3ccccc3)n2)CC1 | –
11 | 1.74 µM | 5.25 µM | COc1ccc(CNc2nc(-c3ccccc3)cc(N3CCN(C)CC3)n2)cc1 | –
12 | 11 µM | 1.95 µM | CN1CCN(c2nc(NCc3ccc(F)cc3)nc3c2CCc2ccccc2-3)CC1 | –
13 | 15.1 µM | 8.13 µM | CN1CCN(c2nc(NCCc3ccccc3)c3c(n2)-c2ccccc2CC3)CC1 | –
14 | 7.76 µM | 1.17 µM | CN1CCN(c2nc3c(c(N4CCN(C)CC4)n2)-c2ccccc2CC3)CC1 | –
15 | 0.186 µM | 9.12 µM | CN1CCN(c2nc(N)nc3c2CCc2ccccc2-3)CC1 | Ki (Histamine H2 receptor): 31.6 µM; EC50 (Histamine H4 receptor [2]): 0.295 µM; Ki (Histamine H3 receptor): 9.77 µM; Ratio (Histamine H4 receptor [3]): -0.47
16 | – | – | CN(C)c1nc(NCCc2ccccc2)cc(-c2ccccc2)n1 | pKi (Histamine H4 receptor [1]): inactive; pKi (Histamine H1 receptor): inactive
17 | 4.27 µM | 5.75 µM | COc1ccc(CNc2nc3c(c(N4CCN(C)CC4)n2)CCc2ccccc2-3)cc1 | –
18 | 9.12 µM | 9.33 µM | CN1CCN(c2nc(NCCc3ccccc3)nc3c2CCc2ccccc2-3)CC1 | –
19 | 36.3 µM | 1.95 µM | CN1CCN(c2nc(NCCc3ccccc3)cc(-c3ccccc3)n2)CC1 | –
20 | 0.955 µM | 1.12 µM | CN1CCN(c2cc(-c3ccccc3)nc(NCc3ccccc3)n2)CC1 | Ki (Histamine H2 receptor): 10.2 µM; EC50 (Histamine H4 receptor [2]): 0.912 µM; Ki (Histamine H3 receptor): 2.51 µM; Ratio (Histamine H4 receptor [3]): -1.27
21 | – | 0.00832 µM | CN1CCN(C2=Nc3ccc(Cl)cc3Oc3ccccc32)CC1 | –
22 | 1.58 µM | 2.09 µM | CN1CCN(c2nc(NCc3ccccc3)nc3c2CCc2ccccc2-3)CC1 | Ki (Histamine H2 receptor): 6.92 µM; EC50 (Histamine H4 receptor [2]): 0.933 µM; Ki (Histamine H3 receptor): 6.03 µM; Ratio (Histamine H4 receptor [3]): -1.01
23 | 20 µM | 3.39 µM | Cc1ccc(CNc2nc3c(c(N4CCN(C)CC4)n2)CCc2ccccc2-3)cc1 | –
